{"source": "patent US12522827B2", "about": "(priority 2021, dated 2026)", "key": {"PR8 (H1N1) virus": {"tested_on": "PR8 (H1N1) virus", "type": "cell-based, Influenza A/PR/8/34 (PR8) H1N1 virus"}, "[1]": {"tested_on": "A/Hong Kong/8/68 (HK68) (H3N2) virus", "type": "cell-based, Influenza A/Hong Kong/8/68 (HK68) H3N2 virus"}, "wild-type PR8 virus": {"tested_on": "wild-type PR8 virus", "set-up": "species or system Balb/C female mice", "settings": "mouse, in vivo"}}, "note": "l = locked nucleic acid (LNA); d = 2'-deoxy (DNA)", "data": [{"substance": "AGAcagcgaccaaAAG (AGACAGCGACCAAAAG; antisense; sugars from the 5' end l3 d10 l3, backbone and methylation of C not given here) [LNA8a]", "values": [{"measurement": "drop in viral production (antiviral activity)", "setting": "PR8 (H1N1) virus", "value": "up to 3 logs"}, {"measurement": "drop in viral production (antiviral activity)", "setting": "[1]", "value": "up to 3 logs"}]}, {"substance": "AccAaaAGaaT (ACCAAAAGAAT; antisense; sugars from the 5' end lddlddllddl, backbone and methylation of C not given here) [LNA1]", "values": [{"measurement": "effect on viral titer / viral production", "setting": "PR8 (H1N1) virus", "value": "little to no effect"}, {"measurement": "effect on viral titer / viral production", "setting": "[1]", "value": "little to no effect"}]}, {"substance": "CATACTTA [LNA5]", "values": [{"measurement": "effect on viral titer / viral production", "setting": "PR8 (H1N1) virus", "value": "failed to inhibit viral production"}, {"measurement": "effect on viral titer / viral production", "setting": "[1]", "value": "failed to inhibit viral production"}]}, {"substance": "CCAAAAGA [LNA4]", "values": [{"measurement": "effect on viral titer / viral production", "setting": "PR8 (H1N1) virus", "value": "little to no effect"}, {"measurement": "effect on viral titer / viral production", "setting": "[1]", "value": "little to no effect"}]}, {"substance": "CagaCaCGaCCaaAA (CAGACACGACCAAAA; antisense; sugars from the 5' end ldddldlldllddll, backbone and methylation of C not given here) [LNA6]", "values": [{"measurement": "titer deficits", "setting": "PR8 (H1N1) virus", "value": "greater than 2 log10"}]}, {"substance": "TACTtactgacaGCC [LNA9]", "values": [{"measurement": "antiviral response, cells pre-treated", "setting": "PR8 (H1N1) virus", "value": "greater than 4 logs"}, {"measurement": "drop in viral production (antiviral activity)", "setting": "PR8 (H1N1) virus", "value": "~5", "unit": "logs"}, {"measurement": "suppression of viral titer, post-infection treatment", "setting": "PR8 (H1N1) virus", "value": "greater than 3 logs"}, {"measurement": "viral inhibition at the lowest dilution", "setting": "PR8 (H1N1) virus", "value": "greater than 2 logs"}, {"measurement": "drop in viral production (antiviral activity)", "setting": "[1]", "value": "~4", "unit": "logs"}, {"measurement": "clinical signs of disease", "setting": "wild-type PR8 virus", "value": "little-to-no clinical signs of disease"}, {"measurement": "protection from fatal influenza disease (survival)", "setting": "wild-type PR8 virus", "value": "completely protected"}, {"measurement": "recovery of weight", "setting": "wild-type PR8 virus", "value": "fully recovered to pre-infection weight"}, {"measurement": "weight loss", "setting": "wild-type PR8 virus", "value": "minimal weight loss"}]}, {"substance": "TagCAtActtA (TAGCATACTTA; antisense; sugars from the 5' end lddlldldddl, backbone and methylation of C not given here) [LNA3]", "values": [{"measurement": "effect on viral titer / viral production", "setting": "PR8 (H1N1) virus", "value": "failed to inhibit viral production"}, {"measurement": "effect on viral titer / viral production", "setting": "[1]", "value": "failed to inhibit viral production"}]}]}
